Results as given in patent US20040019092A1, “Non-peptide somatostatin receptor ligands” (priority 2001, published 2004).

Tests used:
[1] = system: basal plasma levels of growth hormone, glucagon, insulin and glucose; assay: Endocrine parameters in the Rhesus monkey after subcutaneous administration; format: in vivo
Protocol: Therefore, they were further investigated in the Rhesus monkey and their activity profile was determined. Using subcutaneous administration, they were characterized in this species, by measuring their effects on the basal plasma levels of growth hormone, glucagon, insulin as well changes in glucose levels.
Animals and blood sampling: Rhesus monkeys, fed on the previous day in the morning with fruits only, were placed, slightly anesthetized with ketamin (Ketalar©, Parke-Davis), in primate chairs and brought to the experimental room. A catheter, consisting of an in-dwelling cannula (Vasocan Braunüle, 20G, B. Braun Melsungen AG, D-Melsungen), an extension line made from PP 800/110/260/100 Portex© tubing and a special adapter between cannula and tubing with a minimal void volume, was placed in a saphenic vein. The total volume of this catheter was approximately 0.7 mL. The distal end was placed through a hole in the wall to the adjacent room in order to allow infusion and blood sampling without being noticed by the animal. The animals were monitored with a video system.
During the entire duration of the experiment an infusion of 5 to 10 mL/h of isotonic saline (NaCl 0.9% Braun, B. Braun Medical AG, CH-Emmenbrücke) containing heparin sodium 80 mg/L (Biochemie GMBH, A-Kundl) was maintained, using a roller pump (Vario-Perpex, Guldener, CH-Zürich). At each sampling time 1.5 mL (twice the void volume of the catheter) was taken in one syringe before collecting the actual blood sample of 2 mL in another syringe. The first 1.5 mL were reinfused immediately after the actual sample had been taken. The sample was mixed with 0.1 mL of a mixture containing EDTA (ethlenediaminetetraacetic acid tetrasodium Fluka, CH-Buchs) and aprotinin (Trasylol©, Bayer) resulting in final concentrations of 1.8 mg/mL and 1000 KIE/mL, respectively. The blood samples were kept on ice and spun in a cooled centrifuge. […]
Determinations: The blood levels of the hormones were determined by radioimmunoassay (RIA) using the appropriate antisera, antibodies, labels and standards, glucose by an enzymatic assay: […]

GH secretion = assay: Unanesthetized estradiol primed male rats, oral by gavage: GH; format: in vivo, rat; details: estradiol implant male rats, oral by gavage, 1 hour
Protocol: The inhibitory effect of the compounds on GH release may also be examined after oral application to male rats with oestradiol implants. This test is carried out as follows.
A loop (length 50 mmØ3 mm) of silastic with 50 mg of oestradiol is implanted under the dorsal skin of anaesthetized male OFA rats that have a weight of ca. 300 g. At various times (1 to 6 months later), these animals, in a fasted state, are used repeatedly for tests. The test substances are active in this test at doses from 0.1 to 5 mg/kg, when GH level in the blood serum is determined by radio-immunoassay 1 and 2 hours after oral administration.
(§1) Table 5 summarizes the results obtained in the estradiol primed male rats that received the compounds orally by gavage. These rats have stabilized elevated GH plasma levels as well as increased prolactin levels. In contrast to normal untreated rats, who's prolactin secretion is not sensitive to the inhibitory effect of somatostain, in these rats the prolactin secretion is inhibited to a similar degree as the GH secretion. Therefore, the inhibitory effect can be measured on 2 different parameters, GH and prolactin. The mean enteral absorption and activity of the respective compounds are shown.

prolactin secretion = assay: Unanesthetized estradiol primed male rats, oral by gavage: prolactin; format: in vivo, rat; details: estradiol implant male rats, oral by gavage, 1 hour; ø = no effect at this dose
Source text: as §1

[2] = system: GHRH stimulated GH secretion; assay: GH secretion, rat in urethan anesthesia, intraduodenal + repeated GHRH stimulation; format: in vivo; details: urethan
Source text: No further treatment followed subcutaneous or intraduodenal application. […] This value has been determined in a total of four independent experiments. […] However, in further studies compound 47 has also been tested by the enteral route of administration after repeated stimulation of the GH secretion by GHRH. […] With most of these selected compounds additional in vivo experiments in other models (intraduodenal application followed by repeated stimulation of the GH secretion by GHRH, oral application by gavage of unanesthetized, estradiol primed rats) were performed. Table 4 summarizes data obtained for the inhibition of the stimulated GH secretion after subcutaneous, intraduodenal and intravenous application and the inhibitory effects obtained for different time points during intravenous infusion of selected hydantoins. […] [table]

Cc1cccc2c(CC3C(=O)N(CCCCCN)C(=O)N3S(=O)(=O)c3ccc(Oc4ccc(O)c(Cl)c4)c(C#N)c3)c[nH]c12 (stereo not drawn) [Compound 44]
inhibitory effects on hormone release ([1]; up to 1100 μg/kg): no consistent inhibitory effects
GH 1 H ID50 (GH secretion): 16 mg/kg
MEAN ID50 (GH and prolactin) (GH secretion): 16 mg/kg
PROLACT 1 H ID50 (prolactin secretion): ø10000 μg/kg
INTRADUODENAL + GHRH ID50 15′ ([2]; ø = no effect at this dose): 13 mg/kg
INTRADUODENAL + GHRH ID50 30′ [2]: 16 mg/kg
INTRADUODENAL + GHRH ID50 60′ [2]: 19 mg/kg

Cc1cccc2c(CC3C(=O)N(CCCCCN)C(=O)N3S(=O)(=O)c3ccc(Oc4ccc(O)cc4)c(CN)c3)c[nH]c12 (stereo not drawn) [Compound 45]
dose levels necessary for inhibition of hormone release, times higher than Octreotride [1]: about 100 times
GH 1 H ID50 (GH secretion): 8 mg/kg
MEAN ID50 (GH and prolactin) (GH secretion): 11.313 mg/kg
PROLACT 1 H ID50 (prolactin secretion): 16 mg/kg
INTRADUODENAL + GHRH ID50 15′ ([2]; ø = no effect at this dose): 4.663 mg/kg
INTRADUODENAL + GHRH ID50 30′ [2]: 6.52 mg/kg
INTRADUODENAL + GHRH ID50 60′ [2]: 14.047 mg/kg
INTRADUODENAL + GHRH ID50 120′ ([2]; 120′, ø = no effect at this dose): ˜22000 μg/kg
